From patent publication US11358947B2, “Substituted 2-acylamino-cycloalkylthiophene-3-carboxylic acid arylamides as inhibitors of calcium-activated chloride channel TMEM16A” (THE REGENTS OF THE UNIVERSITY OF CALIFORNIA, priority 2017, dated 2022)
Where “and” joins values, the source holds several entries; their conditions need not be identical. Equal entries are not always repeated.

Key:
[1] = In vitro metabolic stability with rat liver microsomes and NADPH; format: in vitro ADME; details: rat liver microsomes + NADPH, 180 min
Experimental: (3B) LC/MS traces showing total ion counts as a function of incubation time.
These compounds were incubated with rat liver microsomes and NADPH, and non-metabolized compounds were quantified by ESI-LCMS. […] It is speculated that Ani-9 could be oxidized at the aryl methyl or N—N bond; or hydrolyzed at the amide or hydrazone linkages.
Compounds (each 10 uM) were incubated for specific time points (2, 5, 15, 30, 60, 180 min) with shaking at 37° C. with rat liver microsomes (1 mg protein/mL, Sigma-Aldrich, St. Louis, Mo.) in potassium phosphate butler (100 mM) containing 1 mM NADPH. The mixture was then chilled on ice, and 0.5 mL of ice-cold ethyl acetate was added. Samples were centrifuged for 15 min at 3000 RPM. The supernatant was evaporated to dryness, and the residue was dissolved in 80 μL of mobile phase (acetonitrile:/water, 3:1, containing 0.1% formic acid) for LC/MS. Reverse-phase HPLC separation was carried out using a Waters C18 column (2.1 mm×100 mm, […]) equipped with a solvent delivery system (Waters model 2690, Milford, Mass.).

SW-480 cells [2] = details: several tumor cell lines including SW480, reported; cited from earlier work
TMEM16A [3] = molecular target: T1, TMEM16A (Homo sapiens, UniProt Q5XXA6); assay: TMEM16A functional fluorescence plate reader (FPR) assay, iodide influx in FRT cells with YFP; format: cell-based; details: TMEM16A-expressing FRT cells, compound 10 min before iodide/ATP
T1 sequence (Q5XXA6 1-986): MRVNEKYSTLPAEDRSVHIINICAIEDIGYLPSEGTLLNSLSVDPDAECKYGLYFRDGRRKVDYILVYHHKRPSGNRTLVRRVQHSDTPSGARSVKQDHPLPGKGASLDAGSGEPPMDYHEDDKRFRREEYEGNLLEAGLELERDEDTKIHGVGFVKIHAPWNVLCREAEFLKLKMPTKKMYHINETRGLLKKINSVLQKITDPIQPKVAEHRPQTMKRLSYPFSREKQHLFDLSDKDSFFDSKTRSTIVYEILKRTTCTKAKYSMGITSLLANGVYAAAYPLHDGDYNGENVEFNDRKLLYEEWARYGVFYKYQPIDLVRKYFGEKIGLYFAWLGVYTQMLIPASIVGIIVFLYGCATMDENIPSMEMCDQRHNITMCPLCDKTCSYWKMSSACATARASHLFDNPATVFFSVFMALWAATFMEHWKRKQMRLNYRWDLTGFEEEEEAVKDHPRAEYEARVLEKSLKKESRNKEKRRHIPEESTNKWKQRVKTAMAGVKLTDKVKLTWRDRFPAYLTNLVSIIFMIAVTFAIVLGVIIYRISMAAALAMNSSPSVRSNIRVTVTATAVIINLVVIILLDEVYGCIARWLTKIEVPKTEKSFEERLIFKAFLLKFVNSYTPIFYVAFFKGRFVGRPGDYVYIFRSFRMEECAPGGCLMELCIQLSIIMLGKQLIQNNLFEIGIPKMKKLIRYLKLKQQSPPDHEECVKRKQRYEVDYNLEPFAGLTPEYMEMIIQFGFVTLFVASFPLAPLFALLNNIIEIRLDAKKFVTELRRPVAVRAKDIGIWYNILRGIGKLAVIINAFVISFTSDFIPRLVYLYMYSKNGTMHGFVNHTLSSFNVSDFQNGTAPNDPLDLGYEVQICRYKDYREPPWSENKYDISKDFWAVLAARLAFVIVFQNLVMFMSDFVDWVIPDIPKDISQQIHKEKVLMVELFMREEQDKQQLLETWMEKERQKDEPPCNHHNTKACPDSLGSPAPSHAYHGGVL
Experimental: A high-throughput screening assay was previously developed to identify small molecule inhibitors of TMEM16A. […] The assay involved addition of test compounds to the cells for 10 min in a physiological chloride-containing solution, followed by addition of an iodide solution containing ATP. TMEM16A-facilitated iodide influx was determined from the initial time course of decreasing YFP fluorescence.
2-Acylamino-cycloalkylthiophene-3-carboxylic acid arylamides 6aa-6bw were initially evaluated for inhibition of TMEM16A anion channel function using a cell-based functional plate reader assay as reported.
Yields (%) are of the isolated or purified products. IC50 (μM) for inhibition of TMEM16A anion conductance using a fluorescence plate reader (FPR) assay.
Cell lines and culture. Fischer Rat Thyroid (FRT) cells stably co-expressing TMEM16A, TMEM16B and human wild-type CFTR and the halide-sensitive yellow fluorescent protein (YFP)-H148Q were cultured as described. […] For plate reader assays, cells were plated in black 96-well microplates (Corning-Costar Corp., New York, N.Y.) at a density of 20,000 cells per well and assayed 24-48 hours after plating.
(§1) TMEM16A functional assay. TMEM16A functional plate-reader assay was done as previously described. […] Test compounds (0.5 μl in DMSO) were added to each well at specified concentration. […] The initial rate of I− influx following each of the solution additions was computed from fluorescence data by nonlinear regression. TMEM16B activity was assayed similarly as described using FRT cells co-expressing YFP and TMEM16B.

TMEM16A [4] = molecular target: T1, TMEM16A; assay: Short-circuit current assay in TMEM16A-expressing FRT cells; format: cell-based
Source text: Measurements were done in FRT cells expressing TMEM16A.
(§2) Concentration-dependent inhibition of TMEM16A measured by short-circuit current assay; TMEM16B and non-TMEM16 anion conductance measured using a fluorescence plate reader assay using FRT and HT-29 cells respectively; cell viability measured in FRT null cells.
Short-circuit current measurement. Short-circuit current measurements were done as described. (See Piechowicz, K. A. et al., J Enzyme Inhib Med Chem 2016, 1-7.) Briefly, Snapwell inserts (Corning Costar, Corning, N.Y.) containing TMEM16A-expressing FRT cells were mounted in Ussing chambers (Physiological instruments, San Diego, Calif.). The hemichambers were filled with 5 ml of HCO3^− buffered solution (basolateral) and half-Cl^− solution (apical), and the basolateral membrane was permeabilized with 250 μg/ml amphotericin B. Solutions were bubbled with 95% O2/5% CO2 and maintained at 37° C., and short-circuit current was measured on a DVC-1000 voltage clamp (World Precision Instruments Inc., Sarasota, Fla.) using Ag/AgCl electrodes and 3 M KCl agar bridges.

TMEM16B = molecular target: T2, TMEM16B (Homo sapiens, UniProt Q9NQ90); assay: TMEM16B fluorescence plate reader assay in FRT cells; format: cell-based
T2 construct: expressed in transfected cells; host or cells: Fischer Rat Thyroid (FRT) cells co-expressing YFP
T2 sequence (Q9NQ90 1-998): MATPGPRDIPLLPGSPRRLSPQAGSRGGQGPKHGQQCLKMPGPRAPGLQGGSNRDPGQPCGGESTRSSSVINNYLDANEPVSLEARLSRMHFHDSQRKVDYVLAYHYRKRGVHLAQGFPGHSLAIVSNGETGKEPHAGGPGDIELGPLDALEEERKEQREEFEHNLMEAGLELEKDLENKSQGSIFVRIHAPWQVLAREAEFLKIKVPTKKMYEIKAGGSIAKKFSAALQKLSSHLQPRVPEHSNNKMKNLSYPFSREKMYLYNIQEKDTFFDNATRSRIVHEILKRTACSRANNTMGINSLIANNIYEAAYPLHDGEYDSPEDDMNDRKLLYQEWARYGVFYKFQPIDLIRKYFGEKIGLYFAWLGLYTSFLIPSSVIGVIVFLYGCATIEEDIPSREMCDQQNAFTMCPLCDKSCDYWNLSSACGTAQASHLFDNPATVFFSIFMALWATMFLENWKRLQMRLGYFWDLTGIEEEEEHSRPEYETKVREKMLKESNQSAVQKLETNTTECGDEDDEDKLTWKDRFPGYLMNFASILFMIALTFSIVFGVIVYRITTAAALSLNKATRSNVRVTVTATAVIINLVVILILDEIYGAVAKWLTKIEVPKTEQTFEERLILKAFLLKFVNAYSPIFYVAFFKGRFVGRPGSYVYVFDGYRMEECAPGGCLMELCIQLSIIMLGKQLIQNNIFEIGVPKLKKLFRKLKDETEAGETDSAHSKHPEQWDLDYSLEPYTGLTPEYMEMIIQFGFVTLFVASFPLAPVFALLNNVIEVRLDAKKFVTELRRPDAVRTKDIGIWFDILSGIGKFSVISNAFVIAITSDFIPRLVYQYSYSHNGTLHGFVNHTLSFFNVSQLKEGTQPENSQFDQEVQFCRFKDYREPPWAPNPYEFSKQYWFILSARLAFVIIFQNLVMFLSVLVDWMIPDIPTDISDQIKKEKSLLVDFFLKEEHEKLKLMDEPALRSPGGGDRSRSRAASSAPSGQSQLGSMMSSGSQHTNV
Experimental: as §2
(§3) We further assayed the compound potency on endogenous non-TMEM16A. Ca^2+-activated Cl^− channel in HT-29 cells.
as §1

FRT null cells = assay: Cytotoxicity by Alamar Blue assay in FRT cells; format: cell-based, rat; details: 8 h
Experimental: as §2, §3
Cytotoxicity. FRT cells were cultured overnight in black 96-well Costar microplates and incubated with 5 μM test compounds for 8 h. Cytotoxicity was measured by Alamar Blue assay (Invitrogen, Carlsbad, Calif.) as per the manufacturer's instructions.

SW-480 cells [5] = assay: SW-480 cell proliferation, AlamarBlue after 72 h; format: cell-based; details: for IC50: Homo sapiens, SW480, AlamarBlue after 72 h of drug treatment, read-out: IC50 inhibition of SW-480 cell proliferation
Experimental: Compounds according to the present disclosure (structures shown in FIG. 5B) were tested for their inhibitory effect on proliferation of SW-480 cell line.
SW-480 cells were cultured on plastic in Leibovitz L15 medium supplemented with 10% fetal bovine serum, 2 mM L-glutamine, 100 units/mL penicillin, and 100 μg/mL streptomycin. The cells were incubated at 37° C. without CO2.
SW-480 cells were plated into black 96-well microplates (Corning-Costar Corp., New York, N.Y.) at 10% seeding. The cells were treated with test compounds dissolved in DMSO in serial dilution while maintaining the final concentration of DMSO at 0.5%. Plated cells were then incubated for 72 h at 37° C. Cell proliferation was quantified using the AlamarBlue assay (Invitrogen, Carlsbad, Calif.) as per the manufacturer's instructions. Data was normalized against untreated control cells that were lysed for 10 minutes using Triton-X100 (0.1% in PBS).

## COc1ccccc1/C=N/NC(=O)COc1ccc(Cl)cc1C [Ani-9, reference compound]
[1]
  Degradation (in words): near complete degradation

## CC(C)(C)C1CCc2c(sc(NC(=O)c3ccco3)c2C(=O)O)C1 (stereo not drawn) [CaCCinh-A01, 6-t-butyl-2-(furan-2-carboxamido)-4,5,6,7-tetrahydrobenzo[b] thiophene-3-carboxylic acid]
SW-480 cells [2]
  Concentrations reported to inhibit proliferation of TMEM16A-expressing tumor cell lines: 10 to 20 µM

## CCC(=O)Nc1sc2c(c1C(=O)Nc1ccccc1)CCCCC2 [Compound 6ah, 2-Propionylamino-5,6,7,8-tetrahydro-4H-cyclohepta[b]thiophene-3-carboxylic acid phenylamide]
TMEM16A [3]
  IC50: 1200 nM

## O=C(Nc1ccccc1F)c1c(NC(=O)C(F)(F)F)sc2c1CCCCC2 [Compound 6aj, 2-(2,2,2-Trifluoro-acetylamino)-5,6,7,8-tetrahydro-4H-cyclohepta[b]thiophene-3-carboxylic acid (2-fluoro-phenyl)-amide]
TMEM16A [3]
  IC50: 1300 nM

## Cc1ccc(NC(=O)c2c(NC(=O)C(F)(F)F)sc3c2CCCC3)cc1 [Compound 6aw, 2-(2,2,2-Trifluoro-acetylamino)-4,5,6,7-tetrahydro-benzo[b]thiophene-3-carboxylic acid p-tolylamide]
TMEM16A [3]
  IC50: 200 to 300 nM and 220 nM

## Cc1ccccc1NC(=O)c1c(NC(=O)C(F)(F)Cl)sc2c1CCCCC2 [Compound 6bk, 2-(2-Chloro-2,2-difluoro-acetylamino)-5,6,7,8-tetrahydro-4H-cyclohepta[b]thiophene-3-carboxylic acid o-tolylamide]
TMEM16A [3]
  IC50: 80 to 180 nM and 180 nM
TMEM16A [4]
  IC50: 230 nM
TMEM16B
  IC50: 400 nM
FRT null cells
  Cellular survival % at 5 μM: 98%
SW-480 cells [5]
  IC50: 750 nM

## Cc1ccccc1NC(=O)c1c(NC(=O)C(F)(F)I)sc2c1CCCCC2 [Compound 6bn, 2-(2,2-Difluoro-2-iodo-acetylamino)-5,6,7,8-tetrahydro-4H-cyclohepta[b]thiophene-3-carboxylic acid o-tolylamide]
TMEM16A [3]
  IC50: 600 nM
TMEM16A [4]
  IC50: 730 nM
TMEM16B
  IC50: 1400 nM
FRT null cells
  Cellular survival % at 5 μM: 96%

## O=C(Nc1ccccc1)c1c(NC(=O)C(F)(F)Cl)sc2c1CCCCC2 [Compound 6bo, 2-(2-Chloro-2,2-difluoro-acetylamino)-5,6,7,8-tetrahydro-4H-cyclohepta[b]thiophene-3-carboxylic acid phenylamide]
TMEM16A [3]
  IC50: 925 nM

## O=C(Nc1ccccc1OC(F)(F)F)c1c(NC(=O)C(F)(F)I)sc2c1CCC2 [Compound 6bw, 2-(2,2-Difluoro-2-iodo-acetylamino)-5,6-dihydro-4H-cyclopenta[b]thiophene-3-carboxylic add (2-trifluoromethoxy-phenyl)-amide]
TMEM16A [3]
  IC50: 1880 nM

## COc1ccc(Cl)cc1NC(=O)c1c(NC(=O)C(F)(F)F)sc2c1CCCCC2 [am1_47, N-(5-chloro-2-methoxyphenyl)-2-(2,2,2-trifluoroacetamido)-5,6,7,8-tetrahydro-4H-cyclohepta[b]thiophene-3-carboxamide]
SW-480 cells [5]
  IC50: 470 nM
SW-480 cells [5]; SW480 cells
  Potency in inhibiting proliferation of SW480 cells compared with CaCCinh-A01 (in words): considerably more potent than CaCCinh-A01
